Values of other authors as cited in patent US6486349B1, “Amide therapeutics and methods for treating inflammatory bowel disease” (Centaur Pharmaceuticals, Inc., priority 1999, dated 2002).

System: senescence-accelerated mice

CC(C)(C)/[N+]([O-])=C/c1ccccc1 [PBN, α-phenyl-t-butyl nitrone]
increase of the life span: one third
